Target: T1, MsPat (MSMEG_5458) (Mycolicibacterium smegmatis, UniProt A0R3F9)
T1 sequence (A0R3F9 1-333): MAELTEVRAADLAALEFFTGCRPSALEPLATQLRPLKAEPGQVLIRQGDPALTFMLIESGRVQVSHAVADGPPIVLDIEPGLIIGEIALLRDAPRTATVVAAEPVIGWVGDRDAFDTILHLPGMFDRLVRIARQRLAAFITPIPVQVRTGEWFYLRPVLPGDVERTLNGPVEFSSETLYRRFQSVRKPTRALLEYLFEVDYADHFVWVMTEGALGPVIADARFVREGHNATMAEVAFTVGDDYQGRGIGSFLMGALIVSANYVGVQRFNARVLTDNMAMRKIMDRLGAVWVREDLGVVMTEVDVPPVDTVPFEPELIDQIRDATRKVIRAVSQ
Test: fluorescent labeling of ACS and time-dependent ACS inactivation
Format: biochemical
Details: 1 mM cGMP in place of cAMP; weak activator, allosteric

Nc1nc2c(ncn2[C@@H]2O[C@@H]3COP(=O)(O)O[C@H]3[C@H]2O)c(=O)[nH]1 [cGMP]
fluorescent labeling of ACS and time-dependent ACS inactivation: Much weaker labeling of ACS was observed when cAMP was replaced with cGMP

Reference: article PMC3125470 (Biochemistry, 2011)
